ChEMBL document CHEMBL1133344, “SAR studies of 2-o-substituted-benzoyl- and 2-alkanoyl-cyclohexane-1,3-diones as inhibitors of 4-hydroxyphenylpyruvate dioxygenase” (Bioorg Med Chem Lett, 2000)
pIC50: −log10 of the molar value.

Experiments:
[1] = biological target: T1, 4-hydroxyphenylpyruvate dioxygenase (Sus scrofa, UniProt Q02110); experiment: Inhibition of 4-hydroxyphenylpyruvate dioxygenase of purified pig liver by enol-borate method
[2] = biological target: T1, 4-hydroxyphenylpyruvate dioxygenase; experiment: In vitro inhibition of 4-hydroxyphenylpyruvate dioxygenase obtained from purified pig liver by enol-borate method

T1 sequence (Q02110 whole entry): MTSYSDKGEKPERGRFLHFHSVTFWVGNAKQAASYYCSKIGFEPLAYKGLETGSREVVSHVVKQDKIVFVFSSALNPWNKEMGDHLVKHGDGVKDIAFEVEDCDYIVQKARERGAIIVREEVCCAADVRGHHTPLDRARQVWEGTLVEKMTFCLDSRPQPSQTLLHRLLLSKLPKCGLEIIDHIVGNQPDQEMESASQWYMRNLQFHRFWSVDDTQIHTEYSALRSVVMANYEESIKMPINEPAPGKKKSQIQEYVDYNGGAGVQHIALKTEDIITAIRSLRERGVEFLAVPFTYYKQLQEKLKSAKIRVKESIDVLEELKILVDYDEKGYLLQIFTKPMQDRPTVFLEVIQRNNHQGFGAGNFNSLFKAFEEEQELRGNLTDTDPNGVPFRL

Structure (SMILES)	pIC50 [1]	pIC50 [2]
O=C1CCCC(=O)C1C(=O)C1CCCCC1	3.44	–
O=C1CCCC(=O)C1C(=O)C1CC1	5.22	–
CCC(=O)C1C(=O)CCCC1=O	4.75	–
O=C1CCCC(=O)C1C(=O)c1ccccc1Br	6.25	–
COc1ccccc1C(=O)C1C(=O)CCCC1=O	4.93	–
O=C1CCCC(=O)C1C(=O)c1ccc(C(F)(F)F)cc1[N+](=O)[O-] [NITISINONE]	7.40	–
Cc1ccccc1C(=O)C1C(=O)CCCC1=O	5.43	–
CC(C)C(=O)C1C(=O)CCCC1=O	4.03	–
O=C1CCCC(=O)C1C(=O)c1ccccc1I	6.12	–
CC(=O)C1C(=O)CCCC1=O	4.95	–
O=C1CCCC(=O)C1C(=O)c1ccccc1	–	4.95
O=C1CCCC(=O)C1C(=O)c1ccccc1Cl	6.30	–
O=C1CCCC(=O)C1C(=O)c1ccccc1[N+](=O)[O-]	6.80	–
O=C1CCCC(=O)C1C(=O)c1ccccc1C(F)(F)F	6.60	–
